Experimental data reported in patent US11040981B2, “Pyrrolotriazine compounds and methods of inhibiting TAM kinases” (Syros Pharmaceuticals, Inc., priority 2017, dated 2021).
pIC50: −log10 of the molar value.

Key:
AXL = target: T1, AXL (Homo sapiens, UniProt P30530); experiment: TR-FRET kinase activity assay, AXL; format: biochemical; conditions: ATP at Km, 60 minutes
T1 sequence (P30530 26-894): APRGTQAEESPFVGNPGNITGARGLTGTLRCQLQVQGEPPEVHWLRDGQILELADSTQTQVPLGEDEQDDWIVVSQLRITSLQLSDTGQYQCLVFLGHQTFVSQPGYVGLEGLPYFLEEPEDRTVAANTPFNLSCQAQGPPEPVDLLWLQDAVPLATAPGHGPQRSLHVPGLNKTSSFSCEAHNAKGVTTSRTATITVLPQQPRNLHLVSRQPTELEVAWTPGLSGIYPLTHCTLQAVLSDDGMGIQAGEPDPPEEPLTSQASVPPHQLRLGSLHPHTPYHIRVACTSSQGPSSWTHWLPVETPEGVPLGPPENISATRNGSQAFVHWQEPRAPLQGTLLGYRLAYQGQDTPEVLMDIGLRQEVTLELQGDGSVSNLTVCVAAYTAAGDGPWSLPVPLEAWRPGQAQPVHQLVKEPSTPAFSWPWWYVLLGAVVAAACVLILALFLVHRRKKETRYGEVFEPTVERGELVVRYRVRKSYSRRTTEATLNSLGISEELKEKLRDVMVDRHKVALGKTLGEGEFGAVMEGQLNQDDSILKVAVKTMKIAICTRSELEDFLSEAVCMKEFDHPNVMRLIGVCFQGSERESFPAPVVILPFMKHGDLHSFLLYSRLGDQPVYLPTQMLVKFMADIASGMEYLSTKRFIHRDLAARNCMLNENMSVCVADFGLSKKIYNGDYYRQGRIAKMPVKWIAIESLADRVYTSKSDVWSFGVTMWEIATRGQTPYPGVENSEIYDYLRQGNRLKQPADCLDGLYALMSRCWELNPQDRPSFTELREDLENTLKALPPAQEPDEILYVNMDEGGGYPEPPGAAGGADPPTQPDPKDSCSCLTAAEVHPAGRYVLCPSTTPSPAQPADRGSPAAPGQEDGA
In short: (§1)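 Enzyme, fluorescent peptide substrate and compound were mixed, and the reaction was started with ATP at each kinase's Km, in 50 mM HEPES pH 7.5, 10 mM MgCl2, 1 mM EGTA, 0.01% Brij 35, 1 mM DTT at RT. After 60 minutes EDTA quench, Eu-labelled phospho-specific antibody was added for 30 minutes, and IC50 was derived from TR-FRET signal loss.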

FLT3 = target: T2, FLT3 (Homo sapiens, UniProt P36888); experiment: TR-FRET kinase activity assay, FLT3; format: biochemical; conditions: ATP at Km, 60 minutes
T2 sequence (P36888 27-993): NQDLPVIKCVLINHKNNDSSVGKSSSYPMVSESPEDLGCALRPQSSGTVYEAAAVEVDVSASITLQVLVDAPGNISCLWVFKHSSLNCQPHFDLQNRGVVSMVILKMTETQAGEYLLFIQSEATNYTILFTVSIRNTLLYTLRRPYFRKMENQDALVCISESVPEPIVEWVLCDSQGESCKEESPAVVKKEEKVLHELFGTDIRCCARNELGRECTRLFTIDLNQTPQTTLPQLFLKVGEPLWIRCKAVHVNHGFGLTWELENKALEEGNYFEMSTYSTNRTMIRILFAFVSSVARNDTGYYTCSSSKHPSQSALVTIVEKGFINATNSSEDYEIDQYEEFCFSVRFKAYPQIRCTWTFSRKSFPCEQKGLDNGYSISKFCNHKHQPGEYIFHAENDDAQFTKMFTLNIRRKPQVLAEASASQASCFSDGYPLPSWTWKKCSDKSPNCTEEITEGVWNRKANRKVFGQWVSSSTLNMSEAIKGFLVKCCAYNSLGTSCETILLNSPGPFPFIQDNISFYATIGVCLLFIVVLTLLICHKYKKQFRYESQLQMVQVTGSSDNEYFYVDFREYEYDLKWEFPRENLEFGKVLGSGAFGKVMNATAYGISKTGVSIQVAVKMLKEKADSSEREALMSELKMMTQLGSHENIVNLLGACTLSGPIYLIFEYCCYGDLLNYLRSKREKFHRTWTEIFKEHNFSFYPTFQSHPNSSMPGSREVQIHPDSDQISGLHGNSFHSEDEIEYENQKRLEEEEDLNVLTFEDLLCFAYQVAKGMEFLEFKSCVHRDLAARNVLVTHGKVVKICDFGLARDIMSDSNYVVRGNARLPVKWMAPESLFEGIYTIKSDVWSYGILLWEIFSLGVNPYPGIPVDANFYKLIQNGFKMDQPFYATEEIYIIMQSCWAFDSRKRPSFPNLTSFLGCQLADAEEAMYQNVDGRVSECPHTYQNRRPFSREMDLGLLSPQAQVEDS
In short: as §1

Structure (SMILES) | pIC50 (AXL) | pIC50 (FLT3)
COC[C@H](C)Nc1ncc2c([C@H]3CCN(S(C)(=O)=O)C3)cc([C@H]3CC[C@H](O)CC3)n2n1 [Compound 376] | 6.00 to 7.00 | 5.00 to 6.00
COC[C@H](C)Nc1ncc2c([C@H]3CCCN(c4ccnc(C)n4)C3)cc([C@H]3CC[C@H](O)CC3)n2n1 [Compound 377] | 6.00 to 7.00 | 5.00 to 6.00
COC[C@H](C)Nc1ncc2c([C@@H]3CCCN(c4ccnc(C)n4)C3)cc([C@H]3CC[C@H](O)CC3)n2n1 [Compound 378] | 5.00 to 6.00 | 5.00 to 6.00
COCC(C)Nc1ncc2c(-c3cnn(CC4CCCO4)c3)cc(C3CCC(O)CC3)n2n1 (stereo not drawn) [Compound 379] | ≥ 7.00 | 6.00 to 7.00
COC[C@H](C)Nc1ncc2c(-c3cnn(CC4CCCO4)c3)cc([C@H]3CC[C@H](O)CC3)n2n1 (stereo partly drawn) [Compound 380] | ≥ 7.00 | 6.00 to 7.00
COC[C@H](C)Nc1ncc2c(-c3ccnc(C)c3)cc([C@H]3CC[C@@](C)(O)CC3)n2n1 [Compound 381] | ≥ 7.00 | 5.00 to 6.00
COC[C@H](C)Nc1ncc2c(-c3cnn(CCC#N)c3)cc([C@H]3CC[C@](C)(O)CC3)n2n1 [Compound 382] | ≥ 7.00 | 6.00 to 7.00
CNC(=O)c1cc(-c2cc([C@H]3CC[C@H](O)CC3)n3nc(N[C@@H](C)CC(F)(F)F)ncc23)ccn1 [Compound 384] | ≥ 7.00 | ≥ 7.00
CNC(=O)c1cc(-c2cc([C@H]3CC[C@H](O)CC3)n3nc(N[C@@H](C)COC(F)F)ncc23)cc(C)n1 [Compound 385] | 6.00 to 7.00 | 5.00 to 6.00
COC[C@H](C)Nc1ncc2c(-c3ccnc(O[C@H]4CCNC4)c3)cc([C@H]3CC[C@H](O)CC3)n2n1 [Compound 386] | ≥ 7.00 | 6.00 to 7.00
C[C@@H](CN(C)C)Nc1ncc2c(-c3cnn(C4COC4)c3)cc([C@H]3CC[C@H](O)CC3)n2n1 [Compound 387] | 5.00 to 6.00 | 5.00 to 6.00
C[C@H](CN(C)C)Nc1ncc2c(-c3cnn(C4COC4)c3)cc([C@H]3CC[C@H](O)CC3)n2n1 [Compound 388] | 5.00 to 6.00 | 5.00 to 6.00
COC[C@H](C)Nc1ncc2c(-c3ccnc(O[C@H]4CCCNC4)c3)cc([C@H]3CC[C@H](O)CC3)n2n1 [Compound 389] | ≥ 7.00 | 6.00 to 7.00
COC[C@H](C)Nc1ncc2c(-c3ccnc(O[C@@H]4CCCNC4)c3)cc([C@H]3CC[C@H](O)CC3)n2n1 [Compound 390] | ≥ 7.00 | 6.00 to 7.00
COC[C@H](C)Nc1ncc2c(-c3ccnc(C)c3)cc([C@H]3CC[C@](C)(O)CC3)n2n1 [Compound 391] | ≥ 7.00 | 6.00 to 7.00
COC[C@H](C)Nc1ncc2c(-c3cnn(CC4CCOCC4)c3)cc([C@H]3CC[C@H](O)CC3)n2n1 [Compound 392] | ≥ 7.00 | ≥ 7.00
CC(COC(F)F)Nc1ncc2c(-c3cnn(C(C)(C)C(=O)N4CCOCC4)c3)cc(C3CCC(O)CC3)n2n1 (stereo not drawn) [Compound 393] | ≥ 7.00 | ≥ 7.00
COC[C@H](C)Nc1ncc2c(-c3cnn(C4CCN(C)C4=O)c3)cc([C@H]3CC[C@H](O)CC3)n2n1 (stereo partly drawn) [Compound 394, 3-(4-(7-((trans)-4-hydroxycyclohexyl)-2-(((S)-1-methoxypropan-2-yl)amino)pyrrolo[2,1-f][1,2,4]triazin-5-yl)-1H-pyrazol-1-yl)-1-methylpyrrolidin-2-one] | ≥ 7.00 | 6.00 to 7.00
COC[C@H](C)Nc1ncc2c(-c3cnn(CC4CC(=O)N(C)C4)c3)cc([C@H]3CC[C@H](O)CC3)n2n1 (stereo partly drawn) [Compound 395] | ≥ 7.00 | 6.00 to 7.00
COC[C@H](C)Nc1ncc2c(-c3cnn([C@@H]4CCN(C(C)=O)C4)c3)cc([C@H]3CC[C@H](O)CC3)n2n1 [Compound 396] | ≥ 7.00 | 6.00 to 7.00
COC[C@H](C)Nc1ncc2c(-c3cnn([C@H]4CCN(C(C)=O)C4)c3)cc([C@H]3CC[C@H](O)CC3)n2n1 [Compound 397] | ≥ 7.00 | 6.00 to 7.00
CNC(=O)c1cncc(-c2cc([C@H]3CC[C@H](O)CC3)n3nc(N[C@@H](C)COC(F)F)ncc23)c1 [Compound 398] | ≥ 7.00 | 5.00 to 6.00
CC1(Nc2ncc3c(-c4cnn(C5COC5)c4)cc(C4CCC(O)CC4)n3n2)COC1 (stereo not drawn) [Compound 399] | ≥ 7.00 | 6.00 to 7.00
COC[C@H](C)Nc1ncc2c(-c3cnn(C4COC4)c3)cc(C3CCC(=O)CC3)n2n1 [Compound 406] | 6.00 to 7.00 | 6.00 to 7.00

More lines, now with the values ahead:

pIC50 (AXL) | pIC50 (FLT3) | Structure (SMILES)
≥ 7.00 | 6.00 to 7.00 | COC[C@H](C)Nc1ncc2c(-c3ccnc(O[C@H]4CCN(C)C4)c3)cc([C@H]3CC[C@H](O)CC3)n2n1 [Compound 400]
≥ 7.00 | 6.00 to 7.00 | COC[C@H](C)Nc1ncc2c(-c3ccnc(O[C@@H]4CCNC4)c3)cc([C@H]3CC[C@H](O)CC3)n2n1 [Compound 401]
≥ 7.00 | 6.00 to 7.00 | COC[C@H](C)Nc1ncc2c(-c3ccnc(O[C@@H]4CCN(C)C4)c3)cc([C@H]3CC[C@H](O)CC3)n2n1 [Compound 402]
≥ 7.00 | 6.00 to 7.00 | COC[C@H](C)Nc1ncc2c(-c3ccnc(O[C@H]4CCCN(C)C4)c3)cc([C@H]3CC[C@H](O)CC3)n2n1 [Compound 403]
≥ 7.00 | 6.00 to 7.00 | COC[C@H](C)Nc1ncc2c(-c3ccnc(O[C@@H]4CCCN(C)C4)c3)cc([C@H]3CC[C@H](O)CC3)n2n1 [Compound 404]
≥ 7.00 | ≥ 7.00 | C[C@@H](COC(F)F)Nc1ncc2c(-c3ccnc(N4CCOCC4)c3)cc([C@H]3CC[C@H](O)CC3)n2n1 [Compound 405]
≥ 7.00 | 6.00 to 7.00 | CNC(=O)c1ncc(-c2cc([C@H]3CC[C@H](O)CC3)n3nc(N[C@@H](C)COC(F)F)ncc23)cn1 [Compound 407]
≥ 7.00 | 6.00 to 7.00 | COC[C@H](C)Nc1ncc2c(-c3cnn(C4(C(=O)N5CCCC5)CC4)c3)cc([C@H]3CC[C@H](O)CC3)n2n1 [Compound 408]
≥ 7.00 | 6.00 to 7.00 | CNC(=O)c1cc(-c2cc([C@H]3CC[C@H](O)CC3)n3nc(N[C@@H](C)COC(F)F)ncc23)ccn1 [Compound 411]
≥ 7.00 | ≥ 7.00 | C[C@@H](CC(F)(F)F)Nc1ncc2c(C3=CCN(C(=O)OC(C)(C)C)CC3)cc([C@H]3CC[C@H](O)CC3)n2n1 [Compound 412]
≥ 7.00 | ≥ 7.00 | CC(=O)N1CCN(Cc2ccc(-c3cc([C@H]4CC[C@H](O)CC4)n4nc(N[C@@H](C)COC(F)F)ncc34)cc2)CC1 [Compound 413]
≥ 7.00 | 5.00 to 6.00 | COC[C@H](C)Nc1ncc2c(-c3cnn(C4(C(=O)N5CCOCC5)CC4)c3)cc([C@H]3CC[C@H](O)CC3)n2n1 [Compound 414]
≥ 7.00 | 5.00 to 6.00 | COC[C@H](C)Nc1ncc2c(-c3cnn(C4(C(=O)NC(C)C)CC4)c3)cc([C@H]3CC[C@H](O)CC3)n2n1 [Compound 415]
≥ 7.00 | 6.00 to 7.00 | COC[C@H](C)Nc1ncc2c(-c3ccnc(N[C@@H]4CCOC4)c3)cc([C@H]3CC[C@H](O)CC3)n2n1 [Compound 416]
≥ 7.00 | 6.00 to 7.00 | COC[C@H](C)Nc1ncc2c(-c3ccnc(NC4CCOC4)c3)cc([C@H]3CC[C@H](O)CC3)n2n1 (stereo partly drawn) [Compound 418]
